Consider `O=S(=O)(NCCc1cn(Cc2ccc3c(c2)Nc2nccnc2S3)cn1)c1ccccc1`, for which the melting point lay in the range of 127 to 130 °C.
Compound `O=C(NCCc1cn(Cc2ccc3c(c2)Nc2nccnc2S3)cn1)c1ccccc1` showed a melting point of 231 to 233 °C.
In the case of `O=Cc1nccn1Cc1ccc2c(c1)Nc1nccnc1S2`, the melting point is 218 to 219 °C.
For the compound `Cc1c(C(N)=O)ncn1Cc1ccc2c(c1)Nc1nccnc1S2`, the melting point is > 298 °C.
The result for `NS(=O)(=O)NCCc1cn(Cc2ccc3c(c2)Nc2nccnc2S3)cn1` reads 187 to 189 °C; that for `Cc1c(CO)ncn1Cc1ccc2c(c1)Nc1nccnc1S2`, > 270 °C (dec.).
In turn, `c1cn(Cc2ccc3c(c2)Nc2nccnc2O3)cn1` displayed a melting point of 252 to 255 °C.
The compound `O=c1ccn(Cc2ccc3c(c2)Nc2nccnc2S3)c(=O)[nH]1` gave a melting point of 269 to 271 °C.
`c1cnc2c(c1)ccn2Cc1ccc2c(c1)Nc1nccnc1S2` yielded a melting point of 202 to 204 °C.
Next, `c1cc2ccnc-2n(Cc2ccc3c(c2)Nc2nccnc2S3)c1`: 210 to 214 °C; `c1ccc2c(c1)nnn2Cc1ccc2c(c1)Nc1nccnc1S2`: 251 to 258 °C; `c1cnc2c(n1)Nc1cc(Cn3cncn3)ccc1S2`: 223 to 226 °C.
As to `c1csc(Cc2ccc3c(c2)Nc2nccnc2S3)n1`, the melting point was 160 to 161 °C.
With `C(=C\c1ccc2c(c1)Nc1nccnc1S2)/c1ccncc1`, the melting point is > 275 °C.
For `OC(c1ccc(Br)nc1)c1ccc2c(c1)Nc1nccnc1S2` (centres unmarked), the melting point fell in the range of 221 to 223 °C.
Take `FC(c1cccnc1)c1ccc2c(c1)Nc1nccnc1S2` (centres unmarked): the melting point was 157 to 159 °C.
The compound `O=C(O)CC1CC2CCC(C1)N2Cc1ccc2c(c1)Nc1nccnc1S2` (centres unmarked) displayed a melting point of 155 to 158 °C.
In turn, `OCCC1C2CCCC1CN(Cc1ccc3c(c1)Nc1nccnc1S3)C2` (centres unmarked) showed a melting point of 123 to 127 °C.
`c1ccc(NCc2ccc3c(c2)Nc2nccnc2S3)cc1` displayed a melting point of 183 to 186 °C.
The result for `CN(Cc1ccc2c(c1)Nc1nccnc1S2)c1ccccc1` reads 172 to 174 °C; that for `O=C(O)C1CCC(CNCc2ccc3c(c2)Nc2nccnc2S3)CC1` (centres unmarked), 217 to 220 °C; that for `CN(CCCC(C)(C)C(=O)O)Cc1ccc2c(c1)Nc1nccnc1S2`, 200 to 202 °C.
On to `CNS(=O)(=O)CCN(C)Cc1ccc2c(c1)Nc1nccnc1S2`, for which the melting point was 143 to 146 °C.
In turn, `Cl.O=C(O)Cc1ccc(NCc2ccc3c(c2)Nc2nccnc2S3)cc1` came in with a melting point of 252 to 256 °C.
In the case of `O=C(NCc1ccc2c(c1)Nc1nccnc1S2)c1ccncc1`, the melting point was 249 to 253 °C (dec.).
As for `CC(C)(CO)C1C2CCCC1CN(Cc1ccc3c(c1)Nc1nccnc1S3)C2` (centres unmarked), the melting point lay in the range of 181 to 183 °C.
Next, `O=c1[nH]cnc2c1ncn2Cc1ccc2c(c1)Nc1nccnc1S2`: > 275 °C.
The result for `CC1CC(C)CN(c2ncnc3c2ncn3Cc2ccc3c(c2)Nc2nccnc2S3)C1` (centres unmarked) reads 237 to 238 °C.
`c1ccc(C2CCN(c3ncnc4c3ncn4Cc3ccc4c(c3)Nc3nccnc3S4)CC2)cc1` came in with a melting point of 239 to 241 °C.
For `c1cnc2c(n1)Nc1cc(Cn3cnc4ncnc(N5CCOCC5)c43)ccc1S2`, the melting point lay within 269 to 273 °C.
In turn, `O=C(O)CCCCCCCCCCSc1ncnc2c1ncn2Cc1ccc2c(c1)Nc1nccnc1S2` had a melting point of 154 to 156 °C.
Next, `CN(C)C(=O)/N=C(\N)Cc1ccc2c(c1)Nc1nccnc1S2`: 158 to 161 °C; `Cl.c1cnc2c(n1)Nc1cc(CC3=NCCCN3)ccc1S2`: > 280 °C; `Cl.N=C(Cc1ccc2c(c1)Nc1nccnc1S2)NCCO`: 174 to 175 °C.
Regarding `N=C(Cc1ccc2c(c1)Nc1nccnc1S2)N1CCC(O)CC1`, the melting point lay in the range of 265 to 267 °C.
The compound `CC(CCC1CCN(C(=N)Cc2ccc3c(c2)Nc2nccnc2S3)CC1)C(=O)O.Cl` (centres unmarked) came in with a melting point of 166 to 171 °C.
As to `N#CN=C(Cc1ccc2c(c1)Nc1nccnc1S2)NO`, the melting point lay within 253 to 256 °C.
In the case of `CONC(Cc1ccc2c(c1)Nc1nccnc1S2)=NC#N`, the melting point lay within 172 to 174 °C.
Regarding `N#CN=C(Cc1ccc2c(c1)Nc1nccnc1S2)NCCCC(=O)O`, the melting point was 217 to 218 °C (dec.).
For `CS(=O)(=O)/N=C/NCc1ccc2c(c1)Nc1nccnc1S2`, the melting point lay in the range of 175 to 176 °C.
Next, `CN(C=NC#N)Cc1ccc2c(c1)Nc1nccnc1S2`: 197 to 198 °C; `OCc1ccc2c(c1)Nc1nccnc1S2`: 187 to 189 °C; `ClCc1ccc2c(c1)Nc1nccnc1S2`: 161 to 162 °C.
Regarding `O=S(=O)(NC1CCN(Cc2ccc3c(c2)Nc2nccnc2S3)CC1)c1ccccc1`, the melting point was 157 to 158 °C.
`OCCC1CCN(Cc2ccc3c(c2)Nc2nccnc2S3)CC1`: the melting point fell in the range of 148 to 152 °C.
The compound `c1cc2c(cn1)Sc1ccc(CN3CCCCC3)cc1N2` had a melting point of 163 to 166 °C.
Next, `N#CC1CCN(Cc2ccc3c(c2)Nc2nccnc2S3)CC1`: 198 to 199 °C; `CN(C)S(=O)(=O)NC1CCN(Cc2ccc3c(c2)Sc2nccnc2N3)CC1`: 172 to 173 °C.
Consider `O=S(=O)(NCCO)NC1CCN(Cc2ccc3c(c2)Nc2nccnc2S3)CC1`, for which the melting point lay within 164 to 166 °C.
Next, `O=C1CC2(CCN(Cc3ccc4c(c3)Nc3nccnc3S4)CC2)CO1`: 180 to 182 °C; `O=C1CC2(CCN(Cc3ccc4c(c3)Nc3nccnc3S4)CC2)CN1`: 211 to 212 °C; `NS(=O)(=O)N1CCN(Cc2ccc3c(c2)Nc2nccnc2S3)CC1`: 215 to 217 °C (dec.).
As for `N=C(NC1CCN(Cc2ccc3c(c2)Nc2nccnc2S3)CC1)C(=O)O`, the melting point was in the range of 186 to 190 °C.
The result for `CS(=O)(=O)NCC1CCN(Cc2ccc3c(c2)Nc2nccnc2S3)CC1` reads 218 to 221 °C; that for `CS(=O)(=O)NCC1CN(Cc2ccc3c(c2)Nc2nccnc2S3)C1`, 84 to 88 °C.
With `c1cnc2c(n1)Nc1cc(CN3CCc4ccoc4C3)ccc1S2`, the melting point lay within 168 to 172 °C.
For `CC(=NC#N)N1CCN(Cc2ccc3c(c2)Nc2nccnc2S3)CC1`, the melting point was 234 °C (dec.).
`c1cnc2c(n1)Nc1cc(CN3CCCCCCC3)ccc1S2`: the melting point lay in the range of 133 to 135 °C.
Compound `c1ccc2c(c1)CCN(Cc1ccc3c(c1)Nc1nccnc1S3)C2` came in with a melting point of 188 to 191 °C.
`C/C(=C\C(=O)O)C1CCN(Cc2ccc3c(c2)Nc2nccnc2S3)CC1` had a melting point of 207 to 209 °C.
Compound `CC(C(=O)O)C1CCN(Cc2ccc3c(c2)Nc2nccnc2S3)CC1` (centres unmarked) displayed a melting point of 240 to 243 °C.
On to `CC(CCC1CCN(CC(O)c2ccc3c(c2)Nc2nccnc2S3)CC1)C(=O)O` (centres unmarked), for which the melting point lay in the range of 239 to 242 °C.
The compound `O=C(O)C(=O)NC1CCN(Cc2ccc3c(c2)Nc2nccnc2S3)CC1` gave a melting point of 222 to 226 °C.
The result for `C/C(=C\C(=O)O)CC1CCN(Cc2ccc3c(c2)Nc2nccnc2S3)CC1` reads 126 to 130 °C; that for `C/C(=C\CC1CCN(Cc2ccc3c(c2)Nc2nccnc2S3)CC1)C(=O)O`, 91 to 93 °C; that for `O=C(O)CNC(=O)NC1CCN(Cc2ccc3c(c2)Nc2nccnc2S3)CC1`, 207 to 210 °C.
On to `O=C(O)Cc1cc2c(s1)CN(Cc1ccc3c(c1)Nc1nccnc1S3)CC2`, for which the melting point was 98 to 105 °C.
`CC(CCC1CCN(C(=O)Cc2ccc3c(c2)Nc2nccnc2S3)CC1)C(=O)O` (centres unmarked) had a melting point of 84 to 89 °C.
With `c1ccc2c(c1)Nc1nccnc1N2`, the melting point fell in the range of 215 to 217 °C.
`OCC(O)CN1c2ccccc2Nc2nccnc21` (centres unmarked) yielded a melting point of 191 to 194 °C.
In turn, `COc1ccc2c(c1)Nc1nccnc1N2C` registered a melting point of 198 to 201 °C.
The result for `COCOc1ccc2c(c1)Nc1nccnc1N2C` reads 197 to 198 °C.
On to `Cl.Oc1ccc2c(c1)Nc1nccnc1N2`, for which the melting point is > 275 °C.
Compound `COCc1ccc2c(c1)Nc1nccnc1N2C` yielded a melting point of 169 to 172 °C.
`CC(CCC1C2CCCC1CN(Cc1ccc3c(c1)Nc1nccnc1S3)C2)C(=O)O` (centres unmarked) came in with a melting point of 104 to 108 °C.
On to `OCCN1c2ccccc2Nc2nccnc21`, for which the melting point fell in the range of 197 to 204 °C.
Take `OCCCCN1c2ccccc2Nc2nccnc21`: the melting point was 138 to 139 °C.
Regarding `CN1c2ccc(CN)cc2Nc2nccnc21`, the melting point was in the range of 117 to 122 °C.
The result for `NC(=O)NCCN1c2ccccc2Nc2nccnc21` reads 231 to 233 °C; that for `CN(C)CC#Cc1ccc2c(c1)Nc1nccnc1N2C`, 188 to 189 °C.
`c1csc(NCc2ccc3c(c2)Nc2nccnc2S3)n1` displayed a melting point of 230 to 235 °C.
Regarding `c1cc(CNCc2ccc3c(c2)Nc2nccnc2S3)ccn1`, the melting point lay in the range of 174 to 176 °C.
The result for `FC(F)(F)c1cnc(NCc2ccc3c(c2)Nc2nccnc2S3)c(Cl)c1` reads 158 to 161 °C; that for `COC(=O)c1ccc(NCc2ccc3c(c2)Nc2nccnc2S3)nc1`, 140 to 148 °C.
Next, `OCc1cc(NCc2ccc3c(c2)Nc2nccnc2S3)ccn1`: 156 to 160 °C.
The compound `Nc1ncccc1NCc1ccc2c(c1)Nc1nccnc1S2` returned a melting point of 225 to 228 °C.
Consider `COc1ccc(NCc2ccc3c(c2)Nc2nccnc2S3)cn1`, for which the melting point was 168 to 172 °C.
On to `c1ccc(Oc2ccc(NCc3ccc4c(c3)Nc3nccnc3S4)cn2)cc1`, for which the melting point was 162 to 165 °C.
Compound `c1ccc(Cc2ccc(NCc3ccc4c(c3)Nc3nccnc3S4)cn2)cc1` gave a melting point of 162 to 164 °C.
As for `CC(=O)N(Cc1ccc2c(c1)Nc1nccnc1S2)c1cccnc1`, the melting point is 212 to 214 °C.
`O=C(Nc1ccccc1)N(Cc1ccc2c(c1)Nc1nccnc1S2)c1cccnc1` gave a melting point of 208 to 210 °C.
For the compound `CC12CCCC(C)(CN(Cc3ccc4c(c3)Nc3nccnc3S4)C1)C2CC(=O)O` (centres unmarked), the melting point is 226 to 229 °C.

Broadly, the melting point is the temperature, or range, at which the solid turns liquid.

The record behind these values is patent publication US6518423B1, “Benzopiperidine derivatives” (Eisai Co., Ltd., priority 1996, dated 2003).
